{
  "source": "PubChem BioAssay (NCI)",
  "experiment_in_all_cases": "NCI tumour cell line growth inhibition, 48 h",
  "key": {"IGROV1 ovarian": {"test_system": "IGROV1 ovarian"}, "HCT-116 colon": {"test_system": "HCT-116 colon"}, "UACC-257 melanoma": {"test_system": "UACC-257 melanoma"}, "SW-620 colon": {"test_system": "SW-620 colon"}, "SF-268 CNS": {"test_system": "SF-268 CNS"}, "RPMI-8226 leukemia": {"test_system": "RPMI-8226 leukemia"}, "HOP-62 NSCLC": {"test_system": "HOP-62 NSCLC"}, "NCI-H522 lung": {"test_system": "NCI-H522 lung"}, "SF-295 CNS": {"test_system": "SF-295 CNS"}, "786-0 renal": {"test_system": "786-0 renal"}, "A549 NSCLC": {"test_system": "A549 NSCLC"}, "ACHN renal": {"test_system": "ACHN renal"}, "UO-31 renal": {"test_system": "UO-31 renal"}, "SNB-19 CNS": {"test_system": "SNB-19 CNS"}, "MOLT-4 leukemia": {"test_system": "MOLT-4 leukemia"}, "SN12C renal": {"test_system": "SN12C renal"}, "DU-145 prostate": {"test_system": "DU-145 prostate"}, "COLO 205 colon": {"test_system": "COLO 205 colon"}, "UACC-62 melanoma": {"test_system": "UACC-62 melanoma"}, "NCI/ADR-RES ovarian": {"test_system": "NCI/ADR-RES ovarian"}, "SK-MEL-2 melanoma": {"test_system": "SK-MEL-2 melanoma"}, "HS 578T breast": {"test_system": "HS 578T breast"}, "MCF7 breast": {"test_system": "MCF7 breast"}, "HCT-15 colon": {"test_system": "HCT-15 colon"}, "HT29 colon": {"test_system": "HT29 colon"}, "OVCAR-8 ovarian": {"test_system": "OVCAR-8 ovarian"}, "MDA-MB-435": {"test_system": "MDA-MB-435"}, "SF-539 CNS": {"test_system": "SF-539 CNS"}},
  "note": "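Tested at 5 concentrations; 48 h exposure; 96-well plates; endpoints linearly interpolated, else capped at highest concentration. Abbreviation: GI50, concentration required for 50% inhibition of growth. TGI denotes the concentration required for complete inhibition of growth.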",
  "data": [
    {"smiles": "O=C(CI)OCC(COC(=O)CI)OC(=O)CI", "values": [
      {"measurement": "GI50", "setting": "IGROV1 ovarian", "value": 1.75, "unit": "µM"},
      {"measurement": "TGI", "setting": "IGROV1 ovarian", "value": 3.5, "unit": "µM"},
      {"measurement": "GI50", "setting": "HCT-116 colon", "value": 1.67, "unit": "µM"},
      {"measurement": "TGI", "setting": "HCT-116 colon", "value": 3.41, "unit": "µM"},
      {"measurement": "GI50", "setting": "UACC-257 melanoma", "value": 4.06, "unit": "µM"},
      {"measurement": "TGI", "setting": "UACC-257 melanoma", "value": 15.4, "unit": "µM"},
      {"measurement": "GI50", "setting": "SW-620 colon", "value": 1.92, "unit": "µM"},
      {"measurement": "TGI", "setting": "SW-620 colon", "value": 4, "unit": "µM"},
      {"measurement": "GI50", "setting": "SF-268 CNS", "value": 13.2, "unit": "µM"},
      {"measurement": "TGI", "setting": "SF-268 CNS", "value": 29.5, "unit": "µM"},
      {"measurement": "GI50", "setting": "RPMI-8226 leukemia", "value": 2.22, "unit": "µM"},
      {"measurement": "TGI", "setting": "RPMI-8226 leukemia", "value": 4.96, "unit": "µM"},
      {"measurement": "GI50", "setting": "HOP-62 NSCLC", "value": 10.8, "unit": "µM"},
      {"measurement": "TGI", "setting": "HOP-62 NSCLC", "value": 27.8, "unit": "µM"},
      {"measurement": "GI50", "setting": "NCI-H522 lung", "value": 0.506, "unit": "µM"},
      {"measurement": "TGI", "setting": "NCI-H522 lung", "value": 1.27, "unit": "µM"},
      {"measurement": "GI50", "setting": "SF-295 CNS", "value": 16.3, "unit": "µM"},
      {"measurement": "TGI", "setting": "SF-295 CNS", "value": 32, "unit": "µM"},
      {"measurement": "GI50", "setting": "786-0 renal", "value": 2.38, "unit": "µM"},
      {"measurement": "TGI", "setting": "786-0 renal", "value": 6.28, "unit": "µM"},
      {"measurement": "GI50", "setting": "A549 NSCLC", "value": 16.8, "unit": "µM"},
      {"measurement": "TGI", "setting": "A549 NSCLC", "value": 35.5, "unit": "µM"},
      {"measurement": "GI50", "setting": "ACHN renal", "value": 1.84, "unit": "µM"},
      {"measurement": "TGI", "setting": "ACHN renal", "value": 3.37, "unit": "µM"},
      {"measurement": "GI50", "setting": "UO-31 renal", "value": 1.39, "unit": "µM"},
      {"measurement": "TGI", "setting": "UO-31 renal", "value": 2.84, "unit": "µM"},
      {"measurement": "GI50", "setting": "SNB-19 CNS", "value": 16.5, "unit": "µM"},
      {"measurement": "TGI", "setting": "SNB-19 CNS", "value": 32.7, "unit": "µM"},
      {"measurement": "GI50", "setting": "MOLT-4 leukemia", "value": 2.06, "unit": "µM"},
      {"measurement": "TGI", "setting": "MOLT-4 leukemia", "value": 4.57, "unit": "µM"},
      {"measurement": "GI50", "setting": "SN12C renal", "value": 4.01, "unit": "µM"},
      {"measurement": "TGI", "setting": "SN12C renal", "value": 15, "unit": "µM"},
      {"measurement": "GI50", "setting": "DU-145 prostate", "value": 8.62, "unit": "µM"},
      {"measurement": "TGI", "setting": "DU-145 prostate", "value": 22.3, "unit": "µM"},
      {"measurement": "GI50", "setting": "COLO 205 colon", "value": 1.88, "unit": "µM"},
      {"measurement": "TGI", "setting": "COLO 205 colon", "value": 3.52, "unit": "µM"},
      {"measurement": "GI50", "setting": "UACC-62 melanoma", "value": 3.05, "unit": "µM"},
      {"measurement": "TGI", "setting": "UACC-62 melanoma", "value": 12.3, "unit": "µM"},
      {"measurement": "GI50", "setting": "NCI/ADR-RES ovarian", "value": 18.4, "unit": "µM"},
      {"measurement": "TGI", "setting": "NCI/ADR-RES ovarian", "value": 45.3, "unit": "µM"},
      {"measurement": "GI50", "setting": "SK-MEL-2 melanoma", "value": 10.3, "unit": "µM"},
      {"measurement": "TGI", "setting": "SK-MEL-2 melanoma", "value": 25.5, "unit": "µM"},
      {"measurement": "GI50", "setting": "HS 578T breast", "value": 4.88, "unit": "µM"},
      {"measurement": "TGI", "setting": "HS 578T breast", "value": 27.7, "unit": "µM"},
      {"measurement": "GI50", "setting": "MCF7 breast", "value": 3.38, "unit": "µM"},
      {"measurement": "TGI", "setting": "MCF7 breast", "value": 14.8, "unit": "µM"},
      {"measurement": "GI50", "setting": "HCT-15 colon", "value": 1.73, "unit": "µM"},
      {"measurement": "TGI", "setting": "HCT-15 colon", "value": 3.61, "unit": "µM"},
      {"measurement": "GI50", "setting": "HT29 colon", "value": 2.92, "unit": "µM"},
      {"measurement": "TGI", "setting": "HT29 colon", "value": 8.91, "unit": "µM"},
      {"measurement": "GI50", "setting": "OVCAR-8 ovarian", "value": 2.53, "unit": "µM"},
      {"measurement": "TGI", "setting": "OVCAR-8 ovarian", "value": 6.92, "unit": "µM"},
      {"measurement": "GI50", "setting": "MDA-MB-435", "value": 10.6, "unit": "µM"},
      {"measurement": "TGI", "setting": "MDA-MB-435", "value": 23.5, "unit": "µM"},
      {"measurement": "GI50", "setting": "SF-539 CNS", "value": 13.7, "unit": "µM"},
      {"measurement": "TGI", "setting": "SF-539 CNS", "value": 27.2, "unit": "µM"}
    ]}
  ]
}
